This note sets out measurements from patent US6472391B2, “Nitrogen-containing heterocyclic compounds” (Millennium Pharmaceuticals, Inc., priority 1996, dated 2002).

For data set [1], the system named is Vascular smooth muscle cells. As to the kind of experiment: Growth inhibition against smooth muscle cells (PDGF-BB stimulated, XTT method). In kind it is cell-based. Conditions: Sus scrofa, 72 h, pig aorta cells, PDGF-BB 20 ng/ml, 3 days, read-out: Growth Inhibitory effect against smooth muscle cells IC50. The text has this:
Test Example 2 Growth Inhibition Against Smooth Muscle Cells
Vascular smooth muscle cells were isolated from a pig aorta by explantation and used for the test. The cells were put into wells of a 96-well plate (8000 cells/well) and cultured in Dulbecco's modified Eagle's medium (DMEM; Nissui Pharmaceutical Co., Ltd.) containing 10% fetal bovine serum (FBS; Hyclone) for 4 days. Then, the cells were further cultured in DMEM containing 0.1% FBS for 3 days, and were synchronized at the cell growth stationary phase.
To each well was added DMEM containing 0.1% FBS and a test sample at a varied concentration, and the cell growth was brought about by PDGF-BB (SIGMA, final concentration: 20 ng/ml). After culturing for 3 days, the cell growth was measured using the cell growth assay kit (Boehringer Mannheim) according to the XTT method [J. Immunol. Methods, 142, 257-265 (1991)], and the cell growth score was calculated by the following equation.
P100: Absorbance by XTT reagent when stimulated by PDGF-BB
P0: Absorbance by XTT reagent when not stimulated by PDGF-BB
M: Absorbance by XTT reagent after addition of a sample when stimulated by PDGF-BB
A general note: Tetrazolium dyes change colour on reduction, which living cells bring about.

Data set [2] concerns the target T1, human β-PDGF receptor (Homo sapiens, UniProt P09619).
T1 construct: expressed in transfected cells; host or cells: Chinese hamster ovary cells (CHO)
As to the kind of experiment: Inhibitory effect on phosphorylation of PDGF receptor. Type of data set: cell-based. The note with it: CHO cells expressing human β-PDGF receptor. The procedure: Test Example 1 Inhibitory Effect on Phosphorylation of PDGF Receptor
The test was carried out according to the method described in the literature [Dah-Shuhn et al., J. Biol. Chem., 266, 413-418 (1991)], using Chinese hamster ovary cells (CHO) wherein human β-PDGF receptor cDNA was introduced and expressed.

Data set [3] relates to Lewis rats. As to the kind of experiment: Rat adjuvant arthritis model. Type of data set: in vivo. Conditions: 3 mg/ml suspension, 1 ml/100 g orally once a day; for inhibition at 3000 µg/mL (stock): Rattus norvegicus, po, 120 h. As to the method: Test Example 4 Evaluation by the use of a Rat Adjuvant Arthritis Model
Killed cells of Mycobacterium butyricum (Difco Laboratories Inc.) were disrupted in agate mortar and suspended in liquid paraffin to the final concentration of 6.6 mg/ml, followed by sterilization with high pressure steam. Then, 100 μl of the suspension was intradermaly injected into the right hind foot pad of each animal of groups of female 8-weeks-old Lewis rats (Charles River Japan) (6 animals/group) to induce adjuvant arthritis. A test compound was suspended in a 0.5% solution of methylcellulose to the final concentration of 3 mg/ml, and from just before the induction of arthritis, the suspension was orally administered in an amount of 1 ml/100 g of the body weight once a day, 5 days a week. To a control group was administered a 0.5% solution of methylcellulose. A normal group was given no adjuvant treatment or test compound administration. The administration of the test compound was continued till the 18th day after the adjuvant treatment. On the 17th day, the number of leukocytes in peripheral blood was counted, and on the 18th day, all the blood was collected, followed by dissection. The change in body weight with the passage of time, the change of edema in hind paw with the passage of time, the weight of spleen and thymus, the number of leukocytes in peripheral blood, the hydroxyproline content of urine, the glucosaminoglycan content of urine, the SH concentration in serum, the concentration of nitrogen monoxide in serum and the concentration of mucoprotein in serum were measured and evaluated. The volume of both hind paws was measured using a rat's hind foot edema measurement device (TK-101, Unicom). The number of leukocytes in peripheral blood was counted using an automatic multichannel blood cell counter (Sysmex K-2000, Toa Iyo Denshi Co., Ltd.). The hydroxyproline content of urine was measured according to the method described in Ikeda, et al., Annual Report of Tokyo Metropolitan Research Laboratories P. H., 36, 277 (1985), and the glucosaminoglycan content was measured according to the method described in Moriyama, et al., Hinyo Kiyo, 40, 565 (1994) and Klompmakers, et al., Analytical Biochemistry, 153, 80 (1986). […] The concentration of mucoprotein was measured using Aspro GP Kit (Otsuka Pharmaceutical Co., Ltd.). The percentage of inhibition for each indication was calculated according to the following equation.
% Inhibition={(Control group−Compound-administered group)/(Control group−Normal group)}×100

Structures are written as SMILES. Like-named read-outs stand apart in the source and are kept apart here.

What is called melting point is the temperature of the solid-liquid transition. For orientation: IC50 means the concentration that inhibits the measured activity by half.

T1 sequence (P09619 33-1106): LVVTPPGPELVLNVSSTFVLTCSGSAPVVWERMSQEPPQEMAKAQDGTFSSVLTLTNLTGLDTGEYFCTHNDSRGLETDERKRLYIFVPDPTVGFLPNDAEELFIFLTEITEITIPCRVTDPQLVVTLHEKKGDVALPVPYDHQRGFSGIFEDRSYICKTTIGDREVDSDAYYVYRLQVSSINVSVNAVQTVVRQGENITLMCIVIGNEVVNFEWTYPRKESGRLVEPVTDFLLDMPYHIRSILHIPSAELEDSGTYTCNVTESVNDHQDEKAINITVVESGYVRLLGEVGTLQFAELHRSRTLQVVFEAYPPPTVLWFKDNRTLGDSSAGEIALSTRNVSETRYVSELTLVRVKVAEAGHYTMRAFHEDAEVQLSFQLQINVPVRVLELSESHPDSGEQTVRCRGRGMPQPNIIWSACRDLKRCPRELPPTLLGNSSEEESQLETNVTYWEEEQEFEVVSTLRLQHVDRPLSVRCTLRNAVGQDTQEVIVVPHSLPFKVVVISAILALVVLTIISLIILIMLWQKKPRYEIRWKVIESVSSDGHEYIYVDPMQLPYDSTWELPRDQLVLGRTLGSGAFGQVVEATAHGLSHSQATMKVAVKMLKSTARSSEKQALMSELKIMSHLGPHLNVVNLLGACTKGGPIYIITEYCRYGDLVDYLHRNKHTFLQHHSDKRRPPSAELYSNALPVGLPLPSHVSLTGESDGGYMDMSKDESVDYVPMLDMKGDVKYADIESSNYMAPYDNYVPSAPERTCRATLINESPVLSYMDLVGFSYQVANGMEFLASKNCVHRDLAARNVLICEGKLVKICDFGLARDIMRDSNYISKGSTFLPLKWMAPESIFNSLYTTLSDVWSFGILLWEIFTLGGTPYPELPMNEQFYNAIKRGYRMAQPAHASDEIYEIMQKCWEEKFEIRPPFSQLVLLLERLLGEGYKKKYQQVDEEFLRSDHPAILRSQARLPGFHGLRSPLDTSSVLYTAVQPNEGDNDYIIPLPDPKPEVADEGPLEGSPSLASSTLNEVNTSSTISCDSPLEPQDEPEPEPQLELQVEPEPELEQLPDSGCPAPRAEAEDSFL

Consider `COc1cc2ncnc(N3CCN(C(=O)Nc4ccc(Br)cc4)CC3)c2cc1OC` [Compound 45, N-(4-bromophenyl)-4-(6,7-dimethoxy-4-quinazolinyl)-1-piperazinecarboxamide], for which the melting point fell in the range of 223 to 228 °C. Further, the half-inhibitory concentration (IC50) in data set [1] came to 80 nM. This molecule gave an IC50 in data set [2] of 160 nM.
The matching figures for `COc1cc2ncnc(N3CCN(C(=S)Nc4ccccc4[N+](=O)[O-])CC3)c2cc1OC` [Compound 78, 4-(6,7-Dimethoxy-4-quinazolinyl)-N-(2-nitrophenyl)-1-piperazinethiocarboxamide]: 177 to 178 °C, 740 nM and 580 nM.
`COc1cc2ncnc(N3CCN(C(=O)Nc4ccc(C(C)C)cc4)CC3)c2cc1OC` [Compound 19, 4-(6,7-Dimethoxy-4-quinazolinyl)-N-(4-isopropylphenyl)-1-piperazinecarboxamide] showed a melting point of 252 to 254 °C. Besides, in data set [1], the IC50 worked out at 180 nM.
Consider `COc1cc2ncnc(N3CCN(C(=O)Nc4ccc(C#N)cc4)CC3)c2cc1OC` [Compound 239, N-(4-Cyanophenyl)-4-(6,7-dimethoxy-4-quinazolinyl)-1-piperazinecarboxamide], for which the melting point lay in the range of 274 to 275 °C. Further, in data set [3] (5 days a week, normal 1.12 ± 0.03, sensitized control 1.84 ± 0.18), the “Volume of left hind foot” value came to 1.52 ± 0.16 mL. The Weight of spleen in data set [3] (normal 21.4 ± 0.3, sensitized control 53.8 ± 3.8, P < 0.05 vs control) was 40.4 ± 2.5 mg/10 g of body weight. Further, in data set [3] (normal 191 ± 5, sensitized control 146 ± 4, P < 0.05 vs control), the Body weight came to 159 ± 2 g. Besides, the inhibition at 3000 µg/mL (stock) in data set [3] (5 days a week, read-out: Inhibition rate (NO concentration)) came to 42%. Besides, the inhibition at 3000 µg/mL (stock) in data set [3] (5 days a week, read-out: Inhibition rate (body weight)) is 29%. For the same molecule, the inhibition at 3000 µg/mL (stock) in data set [3] (5 days a week, read-out: Inhibition rate (volume of left hind foot)) stood at 44%. Also, the inhibition at 3000 µg/mL (stock) in data set [3] (5 days a week, read-out: Inhibition rate (weight of spleen)) was determined as 41%. Moreover, the NO concentration in data set [3] (serum, normal 11.1 ± 1.0, sensitized control 56.6 ± 7.0) turned out to be 37.6 ± 4.0 µM.
Regarding `COc1cc2ncnc(N3CCN(C(=S)Nc4ccc5c(c4)CCC5)CC3)c2cc1OC` [Compound 9, 4-(6,7-Dimethoxy-4-quinazolinyl)-N-(5-indanyl)-1-piperazinethiocarboxamide], the melting point lay in the range of 207 to 210 °C. Further, the IC50 in data set [2] is 670 nM.
The matching figures for `COc1cc2ncnc(N3CCN(C(=O)Nc4ccc(-n5cccc5)nc4)CC3)c2cc1OC` [Compound 283, 4-(6,7-Dimethoxy-4-quinazolinyl)-N-[2-(1-pyrrolyl)-5-pyridyl]-1-piperazinecarboxamide]: 252 to 254 °C and 1400 nM.
With `COc1cc2ncnc(N3CCN(C(=O)Nc4ccc([N+](=O)[O-])cc4)CC3)c2cc1OC` [Compound 77, 4-(6,7-dimethoxy-4-quinazolinyl)-N-(4-nitrophenyl)-1-piperazinecarboxamide], the melting point fell in the range of 272 to 274 °C. The concentration for half-maximal inhibition (IC50) in data set [1] was 100 nM.
`COc1cc2ncnc(N3CCN(C(=O)NCc4ccc(Cl)cc4)CC3)c2cc1OC` [Compound 178, N-(4-Chlorobenzyl)-4-(6,7-dimethoxy-4-quinazolinyl)-1-piperazinecarboxamide] yielded a melting point of 203 to 204 °C. The molecule also yielded an IC50 in data set [2] of 410 nM.
As to `COc1cc2ncnc(N3CCN(C(=O)Nc4ccc(Cl)c(Cl)c4)CC3)c2cc1OC` [Compound 54, N-(3,4-Dichlorophenyl)-4-(6,7-dimethoxy-4-quinazolinyl)-1-piperazinecarboxamide], the melting point fell in the range of 221 to 222 °C. Also, half-maximal inhibition in data set [2] (IC50) was put at 710 nM.
The molecule `O=C(Nc1ccc(Oc2ccccc2)cc1)N1CCN(c2ncnc3cc(Cl)c([N+](=O)[O-])cc23)CC1` [Compound 357, 4-(7-Chloro-6-nitro-4-quinazolinyl)-N-(4-phenoxyphenyl)-1-piperazinecarboxamide] registered a melting point of 190 to 191 °C. The molecule also had an IC50 in data set [2] of 190 nM.
With `COc1cc2ncnc(N3CCN(C(=O)NCc4ccc(OC(F)(F)F)cc4)CC3)c2cc1OC` [Compound 203, 4-(6,7-Dimethoxy-4-quinazolinyl)-N-(4-trifluoromethoxybenzyl)-1-piperazinecarboxamide], the melting point lay in the range of 176 to 177 °C. The molecule also came in with a half-maximal inhibitory concentration (IC50) in data set [2] of 1390 nM.
The molecule `S=C(NCc1cccnc1)N1CCN(c2ncnc3cc4ccccc4cc23)CC1` [Compound 366, 4-(4-Benzo[g]quinazolinyl)-N-(3-picolyl)-1-piperazinethiocarboxamide] yielded a melting point of 107 to 110 °C. Also, in data set [2], the half-maximal inhibitory concentration (IC50) is 1470 nM.
With `Cc1ccc2c(N3CCN(C(=O)Nc4ccc(Oc5ccccc5)cc4)CC3)ncnc2c1` [Compound 312, 4-(7-Methyl-4-quinazolinyl)-N-(4-phenoxyphenyl)-1-piperazinecarboxamide], the melting point lay within 184 to 185 °C. Besides, in data set [2], half-maximal inhibition (IC50) was put at 260 nM.
Consider `COc1cc2ncnc(N3CCN(C(=S)Nc4cccc(C(C)=O)c4)CC3)c2cc1OC` [Compound 241, N-(3-Acetylphenyl)-4-(6,7-dimethoxy-4-quinazolinyl)-1-piperazinethiocarboxamide], for which the melting point lay within 192 to 193 °C. The molecule also yielded an IC50 in data set [2] of 400 nM.
`COc1cc2ncnc(N3CCN(C(=S)Nc4cccc([N+](=O)[O-])c4)CC3)c2cc1OC` [Compound 79, 4-(6,7-Dimethoxy-4-quinazolinyl)-N-(3-nitrophenyl)-1-piperazinethiocarboxamide] displayed a melting point of 140 to 143 °C. Further, the 50% inhibitory concentration (IC50) in data set [1] was 140 nM. This molecule displayed a 50% inhibitory concentration (IC50) in data set [2] of 120 nM.
For the molecule `COc1cc2ncnc(N3CCN(C(=O)Nc4ccc(Oc5ccccc5)cc4)CC3)c2cc1OC` [Compound 60, 4-(6,7-Dimethoxy-4-quinazolinyl)-N-(4-phenoxyphenyl)-1-piperazinecarboxamide], the IC50 in data set [1] came to 30 nM.
